Patent publication US6479435B1, “Diaryl ethers and processes for their preparation and herbicidal and desiccant compositions containing them” (ISK Americas Incorporated, priority 1997, dated 2002)

Legend:
Assay type in all cases: in vivo
[1] = tested on: soybean (Glycine max L., var. Pella 86, SOY); assay: Pre-emerge greenhouse test, crop damage rating; settings: 14 days after application, rating scale 0-100
Outline: (§1)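 Visual 0–100 injury rating (100 = all plants dead) taken 14 days after treatment. Rates of 125–1000 g ai/ha in acetone, 187 l/ha, were sprayed onto soil one day post-sowing; pots were surface-watered to incorporate, then bottom-watered.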

[2] = tested on: green foxtail (Setaria viridis, SETVI); assay: Post-emerge greenhouse herbicide test, phytotoxicity rating; settings: 14 days after application
Outline: (§2)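 Scores use a 0 (no damage) to 100 (complete kill) scale, taken 14 days after a foliar spray. Acetone solutions with 0.25% v/v non-ionic surfactant were applied by track sprayer at 187 l/ha and 63-1000 g ai/ha to bottom-watered 2-3 leaf plants.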

[3] = tested on: velvetleaf (Abutilon theophrasti, ABUTH); assay: as above; settings: 14 days after application
Outline: as §2

[4] = tested on: large crabgrass (Digitaria sanguinalis, DIGSA); assay: as above; settings: 14 days after application
Outline: as §2

[5] = tested on: lambsquarters (Chenopodium album, CHEAL); assay: as above; settings: 14 days after application
Outline: as §2

[6] = tested on: redroot pigweed (Amaranthus retroflexus, AMARE); assay: as above; settings: 14 days after application
Outline: as §2

[7] = tested on: ivyleaf morningglory (Ipomoea hederacea, IPOHE); assay: as above; settings: 14 days after application
Outline: as §2

[8] = tested on: barnyardgrass (Echinochloa crusgalli, ECHCG); assay: as above; settings: 14 days after application
Outline: as §2

[9] = tested on: Johnsongrass (Sorghum halepense, SORHA); assay: as above; settings: 14 days after application
Outline: as §2

[10] = tested on: green foxtail (Setaria viridis, SETVI); assay: Pre-emerge greenhouse herbicide test, phytotoxicity rating; settings: 14 days after application, rating scale 0-100
Outline: as §1

[11] = tested on: velvetleaf (Abutilon theophrasti, ABUTH); assay: as above; settings: 14 days after application, rating scale 0-100
Outline: as §1

[12] = tested on: large crabgrass (Digitaria sanguinalis, DIGSA); assay: as above; settings: 14 days after application, rating scale 0-100
Outline: as §1

[13] = tested on: lambsquarters (Chenopodium album, CHEAL); assay: as above; settings: 14 days after application, rating scale 0-100
Outline: as §1

[14] = tested on: common ragweed (Ambrosia artemisiifolia L., AMBEL); assay: as above; settings: 14 days after application, rating scale 0-100
Outline: as §1

[15] = tested on: redroot pigweed (Amaranthus retroflexus, AMARE); assay: as above; settings: 14 days after application, rating scale 0-100
Outline: as §1

[16] = tested on: ivyleaf morningglory (Ipomoea hederacea, IPOHE); assay: as above; settings: 14 days after application, rating scale 0-100
Outline: as §1

[17] = tested on: barnyardgrass (Echinochloa crusgalli, ECHCG); assay: as above; settings: 14 days after application, rating scale 0-100
Outline: as §1

[18] = tested on: sicklepod (Cassia obtusifolia, CASOB); assay: as above; settings: 14 days after application, rating scale 0-100
Outline: as §1

[19] = tested on: Johnsongrass (Sorghum halepense, SORHA); assay: as above; settings: 14 days after application, rating scale 0-100
Outline: as §1

[20] = tested on: upland rice (Oryza sp., var.Tebonnet, RICE); assay: Pre-emerge greenhouse test, crop damage rating; settings: 125 g ai/ha, 14 days after application, rating scale 0-100
Outline: as §1

[21] = tested on: field corn (Zea mays L., var. Dekalb 535, CORN); assay: Pre-emerge greenhouse test, crop damage rating; settings: 14 days after application, rating scale 0-100
Outline: as §1

[22] = tested on: field corn (Zea mays L., var. Dekalb 535, CORN); assay: Post-emerge greenhouse test, crop damage rating; settings: 14 days after application
Outline: as §2

[23] = tested on: common ragweed (Ambrosia artemisiifolia L., AMBEL); assay: Post-emerge greenhouse herbicide test, phytotoxicity rating; settings: 14 days after application
Outline: as §2

[24] = tested on: soybean (Glycine max L., var. Pella 86, SOY); assay: Post-emerge greenhouse test, crop damage rating; settings: 14 days after application
Outline: as §2

[25] = tested on: sicklepod (Cassia obtusifolia, CASOB); assay: Post-emerge greenhouse herbicide test, phytotoxicity rating; settings: 14 days after application
Outline: as §2

Cn1nc(-c2cc(Oc3nc(F)c(F)cc3F)c(Cl)cc2F)c(Cl)c1C(F)(F)F [Compound 1-6]
crop damage rating SOY ([1]; 125 g ai/ha): 0 | crop damage rating SOY ([1]; 500 g ai/ha): 0 | SETVI phytotoxicity rating (0-100) ([2]; 63 g al/ha): 20 | SETVI phytotoxicity rating (0-100) ([2]; 500 g al/ha): 60 | ABUTH phytotoxicity rating (0-100) ([3]; 63 g al/ha): 50 | ABUTH phytotoxicity rating (0-100) ([3]; 500 g al/ha): 100 | DIGSA phytotoxicity rating (0-100) ([4]; 63 g al/ha): 0 | CHEAL phytotoxicity rating (0-100) ([5]; 63 g al/ha): 30 | CHEAL phytotoxicity rating (0-100) ([5]; 500 g al/ha): 100 | AMARE phytotoxicity rating (0-100) ([6]; 63 g al/ha): 99 | AMARE phytotoxicity rating (0-100) ([6]; 500 g al/ha): 100 | IPOHE phytotoxicity rating (0-100) ([7]; 63 g al/ha): 50 | IPOHE phytotoxicity rating (0-100) ([7]; 500 g al/ha): 100 | ECHCG phytotoxicity rating (0-100) ([8]; 63 g al/ha): 20 | ECHCG phytotoxicity rating (0-100) ([8]; 500 g al/ha): 70 | SORHA phytotoxicity rating (0-100) ([9]; 63 g al/ha): 30 | SORHA phytotoxicity rating (0-100) ([9]; 500 g al/ha): 70 | phytotoxicity rating SETVI ([10]; 125 g ai/ha): 60 | phytotoxicity rating SETVI ([10]; 500 g ai/ha): 30 | phytotoxicity rating ABUTH ([11]; 125 g ai/ha): 50 | phytotoxicity rating ABUTH ([11]; 500 g ai/ha): 80 | phytotoxicity rating DIGSA ([12]; 125 g ai/ha): 20 | phytotoxicity rating DIGSA ([12]; 500 g ai/ha): 10 | phytotoxicity rating CHEAL ([13]; 125 g ai/ha): 40 | phytotoxicity rating CHEAL ([13]; 500 g ai/ha): 100 | phytotoxicity rating AMBEL ([14]; 125 g ai/ha): 100 | phytotoxicity rating AMBEL ([14]; 500 g ai/ha): 99 | phytotoxicity rating AMARE ([15]; 125 g ai/ha): 95 | phytotoxicity rating AMARE ([15]; 500 g ai/ha): 99 | phytotoxicity rating IPOHE ([16]; 125 g ai/ha): 30 | phytotoxicity rating IPOHE ([16]; 500 g ai/ha): 99 | phytotoxicity rating ECHCG ([17]; 125 g ai/ha): 30 | phytotoxicity rating ECHCG ([17]; 500 g ai/ha): 70 | phytotoxicity rating CASOB ([18]; 125 g ai/ha): 0 | phytotoxicity rating CASOB ([18]; 500 g ai/ha): 0 | phytotoxicity rating SORHA ([19]; 125 g ai/ha): 0 | phytotoxicity rating SORHA ([19]; 500 g ai/ha): 90 | crop damage rating RICE [20]: 0 | crop damage rating CORN ([21]; 125 g ai/ha): 0 | crop damage rating CORN ([21]; 500 g ai/ha): 0 | CORN crop damage rating (0-100) ([22]; 63 g al/ha): 10 | CORN crop damage rating (0-100) ([22]; 500 g al/ha): 10 | AMBEL phytotoxicity rating (0-100) ([23]; 63 g al/ha): 0 | AMBEL phytotoxicity rating (0-100) ([23]; 500 g al/ha): 90 | SOY crop damage rating (0-100) ([24]; 63 g al/ha): 30 | SOY crop damage rating (0-100) ([24]; 500 g al/ha): 50

O=c1sc(=Nc2cc(Oc3ncccc3C(F)(F)F)c(Cl)cc2F)n2n1CCCC2 [Compound 7-1, 9-[4-chloro-2-fluoro-5-(3-trifluoromethyl-2-pyridyloxy)phenylimino]-8-thia-1,6-diazabicyclo[4,3,0]nonane-7-one]
SETVI phytotoxicity rating (0-100) ([2]; 63 g al/ha): 20 | SETVI phytotoxicity rating (0-100) ([2]; 500 g al/ha): 60 | ABUTH phytotoxicity rating (0-100) ([3]; 63 g al/ha): 90 | ABUTH phytotoxicity rating (0-100) ([3]; 500 g al/ha): 100 | DIGSA phytotoxicity rating (0-100) ([4]; 63 g al/ha): 30 | DIGSA phytotoxicity rating (0-100) ([4]; 500 g al/ha): 60 | CHEAL phytotoxicity rating (0-100) ([5]; 63 g al/ha): 100 | CHEAL phytotoxicity rating (0-100) ([5]; 500 g al/ha): 100 | AMARE phytotoxicity rating (0-100) ([6]; 63 g al/ha): 100 | AMARE phytotoxicity rating (0-100) ([6]; 500 g al/ha): 100 | IPOHE phytotoxicity rating (0-100) ([7]; 63 g al/ha): 100 | IPOHE phytotoxicity rating (0-100) ([7]; 500 g al/ha): 100 | ECHCG phytotoxicity rating (0-100) ([8]; 63 g al/ha): 0 | ECHCG phytotoxicity rating (0-100) ([8]; 500 g al/ha): 20 | CASOB phytotoxicity rating (0-100) ([25]; 63 g al/ha): 70 | CASOB phytotoxicity rating (0-100) ([25]; 500 g al/ha): 20 | SORHA phytotoxicity rating (0-100) ([9]; 500 g al/ha): 30 | phytotoxicity rating SETVI ([10]; 125 g ai/ha): 90 | phytotoxicity rating SETVI ([10]; 500 g ai/ha): 100 | phytotoxicity rating ABUTH ([11]; 125 g ai/ha): 90 | phytotoxicity rating ABUTH ([11]; 500 g ai/ha): 100 | phytotoxicity rating DIGSA ([12]; 125 g ai/ha): 60 | phytotoxicity rating DIGSA ([12]; 500 g ai/ha): 90 | phytotoxicity rating CHEAL ([13]; 125 g ai/ha): 100 | phytotoxicity rating CHEAL ([13]; 500 g ai/ha): 100 | phytotoxicity rating AMBEL ([14]; 125 g ai/ha): 80 | phytotoxicity rating AMBEL ([14]; 500 g ai/ha): 90 | phytotoxicity rating AMARE ([15]; 125 g ai/ha): 100 | phytotoxicity rating AMARE ([15]; 500 g ai/ha): 100 | phytotoxicity rating IPOHE ([16]; 125 g ai/ha): 0 | phytotoxicity rating IPOHE ([16]; 500 g ai/ha): 0 | phytotoxicity rating ECHCG ([17]; 125 g ai/ha): 0 | phytotoxicity rating ECHCG ([17]; 500 g ai/ha): 0 | phytotoxicity rating CASOB ([18]; 125 g ai/ha): 50 | phytotoxicity rating CASOB ([18]; 500 g ai/ha): 10 | phytotoxicity rating SORHA ([19]; 125 g ai/ha): 0 | phytotoxicity rating SORHA ([19]; 500 g ai/ha): 60 | AMBEL phytotoxicity rating (0-100) ([23]; 63 g al/ha): 95 | AMBEL phytotoxicity rating (0-100) ([23]; 500 g al/ha): 100
